Entries after “also recorded” stand apart in the source; their conditions may differ.
Legend:
[1] = Mouse urine pharmacokinetics of mannosides (LC-MS); conditions: in vivo
Experimental: Pharmacokinetic (PK) studies with ZFH-2056 evaluated in vivo dosing conditions after intraperitoneal (IP) injection or oral (PO) gavage. ZFH-2056 was dosed IP and compound levels in the urine were evaluated at several timepoints by HPLC using mass spectrometry (MS) detection. […] Since oral dosing is the desired route of delivery, we next evaluated the concentration of drug after 100 mg/kg PO of ZFH-2056.
(§1) Pharamacokinetic analysis. For intraperitoneal dosing, 50 μl of a 2 mg/ml (5 mg/kg) or 4 mg/ml (10 mg/kg) solution of ZFH-2056 in PBS was injected into the peritoneal cavity of the mouse. For oral dosing, 100 μl of a 20 mg/ml (100 mg/kg) solution of ZFH-2056 in 8% DMSO was inoculated with a gavage needle into the mouse stomach. Urine was collected at 30 min, 1, 2, 3, 4, 6, and 8 h post-treatment. An equal volume of 10 μM internal standard (ZFH-2050) was added to the urine. Mannosides were extracted from the urine by loading on C18 columns (100 mg, Waters), washing with 30% methanol, and eluting with 60% methanol. […] Absolute quantification was achieved by comparison to a calibration curve.
as §1, with “For” for “Pharamacokinetic analysis. For intraperitoneal dosing, 50 μl of a 2 mg/ml (5 mg/kg) or 4 mg/ml (10 mg/kg) solution of ZFH-2056 in PBS was injected into the peritoneal cavity of the mouse. For”

[2] = tested on: UTI89; assay: Ex vivo gentamicin protection assay of infected mouse bladders (luminal vs intracellular bacteria); format: in vivo, E. coli (UPEC); host mouse; conditions: IP 5 mg/kg pretreatment; 6 hpi
Text: Based on the extensive elucidation of the UPEC pathogenic cascade, critical nodes in pathogenesis that mannosides would target and thereby have powerful and potent therapeutic ramifications were identified. The first step in the UPEC pathway involves FimH-mediated colonization of the bladder epithelium via the recognition of mannose receptors. Bacterial invasion into superficial bladder umbrella cells can then ensue. […] To test this, a well-established gentamicin protection assay that allows the determination of the luminally bound fraction versus the intracellular fraction was utilized (FIG. 10). […] This may be due to contamination from bacteria in the urine or bacteria that are non-specifically associated with the epithelium. In any case, blocking invasion blocks the ability of the bacteria to rapidly expand in numbers. This is due to the ability of the mannosides to block the IBC mechanism.
Gentamicin protection assay. To enumerate bacteria present in the intracellular versus extracellular compartments, bladders were aseptically harvested at 6 hpi. The bladders were then bisected twice and washed three times in 500 μl of PBS each. The wash fractions were pooled, lightly spun at 500 rpm for 5 min to pellet exfoliated bladder cells, serially diluted, and plated onto LB agar to obtain the luminal fraction. The bladders were treated with 100 μg of gentamicin/ml for 90 min at 37° C. After treatment, the bladders were washed twice with PBS to eliminate residual gentamicin, homogenized in 1 ml of PBS, serially diluted, and plated onto LB agar to enumberate the CFUs in the intracellular fraction.
To enumerate bacteria present in the intracellular versus extracellular compartments, bladders were aseptically harvested at 6 hpi. The bladders were then bisected twice and washed three times in 500 μl of PBS each. The wash fractions were pooled, lightly spun at 500 rpm for 5 min to pellet exfoliated bladder cells, serially diluted, and plated onto LB agar to obtain the luminal fraction. The bladders were treated with 100 μg of gentamicin/ml for 90 min at 37° C. […]

## CNC(=O)c1cc(C(=O)NC)cc(-c2ccc(O[C@H]3O[C@H](CO)[C@@H](O)[C@H](O)[C@@H]3O)cc2)c1 [ZFH-2056]
[1]
  drug cleared to the urine intact / unchanged: > 95%
  hydrolysis products (D-mannose and phenol) in urine: < 5%
[1]; ip
  level in urine: ≤ 740 nM
[2]
  intracellular bacteria (CFUs after gentamicin treatment): eliminated all CFUs; also recorded: significantly reduced
  luminal bacteria: significantly reduced

From patent US8937167B2 (Washington University, priority 2009, dated 2015)
